From ChEMBL document CHEMBL2203150, “CXCR3 antagonists: quaternary ammonium salts equipped with biphenyl- and polycycloaliphatic-anchors” (Bioorg Med Chem, 2011) come the findings set out here.

SMILES strings stand for the structures.

The target in experiment [1] is T1, C-X-C chemokine receptor type 3 (Homo sapiens, UniProt P49682).
T1 sequence (P49682 whole entry): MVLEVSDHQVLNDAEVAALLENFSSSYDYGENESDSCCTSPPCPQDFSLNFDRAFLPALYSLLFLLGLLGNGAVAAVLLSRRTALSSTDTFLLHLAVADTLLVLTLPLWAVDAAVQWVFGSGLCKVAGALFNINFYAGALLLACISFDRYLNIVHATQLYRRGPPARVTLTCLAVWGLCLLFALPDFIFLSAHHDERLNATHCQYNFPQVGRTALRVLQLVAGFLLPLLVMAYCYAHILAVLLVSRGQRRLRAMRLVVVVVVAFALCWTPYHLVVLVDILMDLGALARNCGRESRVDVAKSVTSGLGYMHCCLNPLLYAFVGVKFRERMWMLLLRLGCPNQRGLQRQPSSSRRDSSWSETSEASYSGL
The experiment can be described thus: Displacement of [125I]-CXCL11 from human CXCR3 expressed in HEK293 cells. The format is cell-based. Background: Loss of bound radioactivity is the signal in a displacement assay; it reports binding, not function.

Experiment [2] concerns the target T1, C-X-C chemokine receptor type 3. The experiment can be described thus: Displacement of [125I]-CXCL10 from human CXCR3 expressed in HEK293 cells. The format is cell-based.
The target of experiment [3] is T2, C-X-C chemokine receptor type 3 (Homo sapiens) (UniProt P49682).
T2 sequence (whole entry): T1 sequence (P49682 whole entry)
Nature of the experiment: Antagonist activity at human CXCR3 expressed in HEK293T cells co-expressing Galphaqi5 assessed as inhibition of CXCL10-induced [3H]-inositolphosphates levels. In kind it is functional, cell-based. The conditions noted are these: HEK-293T.

Regarding `CC1(C)[C@H]2CC=C(C[N+](C)(C)Cc3ccc(-c4ccsc4)cc3)[C@@H]1C2`, the results for the inhibition constant (Ki) in experiment [1] and in experiment [2] were 316 nM and 200 nM, respectively. In experiment [3], the pKb (commonly −log10 of the Kb, conventionally taken in molar units) turned out to be 6.4.
As for `CCOc1ccc(-n2c([C@@H](C)N(Cc3cccnc3)C(=O)Cc3ccc(OC(F)(F)F)cc3)nc3ncccc3c2=O)cc1`, in experiment [3], the inhibition result is “Dose-dependent effect” and the pKb amounted to 8.
Take `CC1(C)[C@H]2CC=C(C[N+](C)(C)Cc3ccc(Cl)cc3)[C@@H]1C2`: the Ki – broadly, a measure of affinity in units of concentration, obtained from inhibition or displacement – in experiment [1] is 501 nM; in experiment [2], 200 nM. For the same molecule, in experiment [3], the negative logarithm of the Kb (pKb) worked out at 6.3.
In the same order, the values of `CC1(C)[C@H]2CC=C(C[N+](C)(C)Cc3ccc(-c4cccc(Cl)c4)cc3)[C@@H]1C2` are 316 nM, 126 nM and 6.3.
For `N=C(Nc1ccc(I)cc1)NC1C2CC3CC(C2)CC1C3` (centres undefined), the Ki in experiment [1] and in experiment [2] was 3980 nM throughout.
For `CN(Cc1ccc(I)cc1)CC1C[C@H]2CC[C@]1(C)C2(C)C` (mixture of isomers), in experiment [2], the Ki is 7940 nM.
As for `CC1(C)[C@@H]2CC[C@@]1(C)C(C[N+](C)(C)Cc1ccc(I)cc1)C2` (mixture of isomers), in experiment [2], the affinity corresponds to a Ki of 1580 nM.
On to `CC1(C)[C@H]2CC=C(C[N+](C)(C)Cc3ccc(I)cc3)[C@@H]1C2`, for which the Ki in experiment [1] is 398 nM; in experiment [2], 251 nM. Further, the pKb in experiment [3] turned out to be 6.6.
As to `CN(CC1=CC[C@H]2C[C@@H]1C2(C)C)Cc1cccc(I)c1`, affinity in experiment [2] was put at a Ki of 7940 nM.
On to `CC[N+](C)(CC1=CC[C@H]2C[C@@H]1C2(C)C)Cc1ccc(I)cc1` (some centres undefined), for which affinity in experiment [2] was put at a Ki of 631 nM.
Still for that read-out and setting: the value for `CC1(C)[C@H]2CC=C(C[N+](C)(C)Cc3ccc(-c4cc(Cl)cc(Cl)c4)cc3)[C@@H]1C2` was 398 nM; that for `COC(=O)c1cccc(-c2ccc(C[N+](C)(C)CC3=CC[C@H]4C[C@@H]3C4(C)C)cc2)c1` was 1000 nM; that for `CN(CC1=CC[C@H]2C[C@@H]1C2(C)C)Cc1ccc(I)cc1` was 3160 nM.
On the same count and under the same terms, with `CN(CC1=CC[C@H]2C[C@@H]1C2(C)C)Cc1ccc(-c2cccc(O)c2)cc1` the figure was greater than 316 nM; with `COC(=O)c1cccc(-c2ccc(CN(C)CC3=CC[C@H]4C[C@@H]3C4(C)C)cc2)c1`, greater than 316 nM.
The molecule `CN(CC1=CC[C@H]2C[C@@H]1C2(C)C)Cc1ccc(F)cc1` had a Ki in experiment [2] of 6310 nM.
The same measure, in the same setting: the value for `CN(CC1=CC[C@H]2C[C@@H]1C2(C)C)Cc1ccc(-c2ccsc2)cc1` was 3980 nM; that for `CC1(C)[C@H]2CC=C(C[N+](C)(C)Cc3ccc(-c4cccc(N)c4)cc3)[C@@H]1C2` was 3160 nM; that for `CN(CC1=CC[C@H]2C[C@@H]1C2(C)C)Cc1ccc(Cl)c(Cl)c1` was 3160 nM.
